How the values were obtained:
Type in all cases: cell-based
alpha2A receptor = molecular target: T1, alpha2A receptor (Homo sapiens, UniProt P08913); assay: RSAT (Receptor Selection and Amplification Technology) assay, alpha 2A; conditions: for EC50 / Alpha 2A EC50: RSAT, transfected NIH-3T3 cells, "not active" = not active at concentrations less than 10 micromolar; for Alpha 2A IA: intrinsic activity: ratio of maximal effect of drug to maximal effect of standard full agonist brimonidine (UK14304)
T1 construct: expressed in transfected cells; host or cells: NIH-3T3 cells
T1 sequence (P08913 1-465): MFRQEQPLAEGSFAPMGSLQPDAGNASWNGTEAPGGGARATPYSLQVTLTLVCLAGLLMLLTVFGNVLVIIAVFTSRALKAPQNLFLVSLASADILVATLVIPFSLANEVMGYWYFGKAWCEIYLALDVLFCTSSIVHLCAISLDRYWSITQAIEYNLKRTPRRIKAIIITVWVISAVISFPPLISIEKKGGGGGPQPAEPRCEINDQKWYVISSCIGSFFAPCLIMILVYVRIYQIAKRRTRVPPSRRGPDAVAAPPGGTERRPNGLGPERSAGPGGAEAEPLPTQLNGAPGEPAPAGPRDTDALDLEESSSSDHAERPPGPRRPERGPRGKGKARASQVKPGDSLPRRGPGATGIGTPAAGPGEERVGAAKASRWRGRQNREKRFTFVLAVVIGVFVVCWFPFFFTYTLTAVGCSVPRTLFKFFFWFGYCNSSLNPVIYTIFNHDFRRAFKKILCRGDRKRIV
Excerpt: (§1) The aryl fluoroethyl ureas of the invention are agonists of alpha2 adrenergic receptors. […] Al, 1995, Pharmacol. Toxicol. 76, pp. 308-311 (incorporated herein by reference) and is also described below. Another reference pertinent to this assay is Conklin et al. (1993) Nature 363:274-6, Receptor Selection and Amplification Technology (RSAT) assay, also incorporated herein by reference.
(§2) The RSAT assay measures a receptor-mediated loss of contact inhibition that results in selective proliferation of receptor-containing cells in a mixed population of confluent cells. The increase in cell number is assessed with an appropriate transfected marker gene such as ∃-galactosidase, the activity of which can be easily measured in a 96-well format. Receptors that activate the G protein, Gq, elicit this response. Alpha 2 receptors, which normally couple to Gi, activate the RSAT response when coexpressed with a hybrid Gq protein that has a Gi receptor recognition domain, called Gq/i5.
(§3) NIH-3T3 cells are plated at a density of 2×10^6 cells in 15 cm dishes and maintained in Dulbecco's modified Eagle's medium supplemented with 10% calf serum. One day later, cells are cotransfected by calcium phosphate precipitation with mammalian expression plasmids encoding p-SV-β-galactosidase (5-10 μg), receptor (1-2 μg) and G protein (1-2 μg). 40 μg salmon sperm DNA may also be included in the transfection mixture. Fresh media is added on the following day and 1-2 days later, cells are harvested and frozen in 50 assay aliquots. Cells are thawed and 100 μl added to 100 μl aliquots of various concentrations of drugs in triplicate in 96-well dishes. Incubations continue 72-96 hr at 37° C. After washing with phosphate-buffered saline, ∃-galactosidase enzyme activity is determined by adding 200 μl of the chromogenic substrate (consisting of 3.5 mM o-nitrophenyl-β-D-galactopyranoside and 0.5% nonidet P-40 in phosphate buffered saline), incubating overnight at 30° C. and measuring optical density at 420 nm. The absorbance is a measure of enzyme activity, which depends on cell number and reflects a receptor-mediated cell proliferation. The efficacy or intrinsic activity is calculated as a ratio of the maximal effect of the drug to the maximal effect of a standard full agonist for each receptor subtype. Brimonidine, also called UK14304, the chemical structure of which is shown below, is used as the standard agonist for the alpha2A, alpha2B and alpha2C receptors.
(§4) The results of the RSAT assay with several exemplary compounds of the invention are disclosed in Table 1 below together with the chemical structures of these compounds. “Not active” means the compounds are not active at concentrations less than 10 micromolar.

alpha2B receptor = molecular target: T2, alpha2B receptor (Homo sapiens, UniProt P18089); assay: RSAT (Receptor Selection and Amplification Technology) assay, alpha 2B; conditions: for EC50: RSAT, transfected NIH-3T3 cells, "not active" = not active at concentrations less than 10 micromolar, read-out: Alpha 2B EC50; for Alpha 2B IA: intrinsic activity: ratio of maximal effect of drug to maximal effect of standard full agonist brimonidine (UK14304)
T2 construct: expressed in transfected cells; host or cells: NIH-3T3 cells
T2 sequence (P18089 1-450): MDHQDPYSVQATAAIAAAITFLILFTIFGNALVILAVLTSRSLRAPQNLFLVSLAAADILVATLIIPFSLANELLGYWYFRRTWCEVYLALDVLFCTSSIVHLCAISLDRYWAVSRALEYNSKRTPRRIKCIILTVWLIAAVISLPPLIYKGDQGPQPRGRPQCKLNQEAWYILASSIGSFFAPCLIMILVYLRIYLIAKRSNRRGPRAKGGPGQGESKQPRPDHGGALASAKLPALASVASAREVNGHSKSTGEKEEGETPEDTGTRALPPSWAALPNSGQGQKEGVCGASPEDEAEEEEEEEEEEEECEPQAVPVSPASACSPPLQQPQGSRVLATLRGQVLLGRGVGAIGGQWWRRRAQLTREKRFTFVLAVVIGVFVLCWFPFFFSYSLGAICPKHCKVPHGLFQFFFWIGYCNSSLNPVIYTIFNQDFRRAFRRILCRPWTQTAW
Method: as §2, §3

alpha2C receptor = molecular target: T3, alpha2C receptor (Homo sapiens, UniProt P18825); assay: RSAT (Receptor Selection and Amplification Technology) assay, alpha 2C; conditions: for EC50 / Alpha 2C EC50: RSAT, transfected NIH-3T3 cells, "not active" = not active at concentrations less than 10 micromolar; for Alpha 2C IA: intrinsic activity: ratio of maximal effect of drug to maximal effect of standard full agonist brimonidine (UK14304)
T3 construct: expressed in transfected cells; host or cells: NIH-3T3 cells
T3 sequence (P18825 1-462): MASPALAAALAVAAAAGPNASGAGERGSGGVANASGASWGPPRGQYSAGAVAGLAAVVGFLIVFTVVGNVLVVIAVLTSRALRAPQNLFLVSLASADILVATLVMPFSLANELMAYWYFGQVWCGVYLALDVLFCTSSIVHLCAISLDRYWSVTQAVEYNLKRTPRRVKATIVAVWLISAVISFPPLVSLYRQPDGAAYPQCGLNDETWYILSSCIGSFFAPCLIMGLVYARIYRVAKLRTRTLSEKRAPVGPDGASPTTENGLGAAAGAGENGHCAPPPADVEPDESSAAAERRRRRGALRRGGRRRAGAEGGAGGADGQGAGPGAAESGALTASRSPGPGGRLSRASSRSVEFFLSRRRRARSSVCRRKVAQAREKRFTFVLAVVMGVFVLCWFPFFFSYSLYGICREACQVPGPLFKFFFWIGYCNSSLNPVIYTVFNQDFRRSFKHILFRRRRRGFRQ
Excerpt: as §1, §2, §3, §4

COc1c(C)cccc1CNC(=O)NCCF [Compound 17, 1-(2-fluoro-ethyl)-3-(2-methoxy-3-methyl-benzyl)-urea]
EC50 (alpha2A receptor): 678 nM
Alpha 2A IA (alpha2A receptor): 0.79
EC50 (alpha2B receptor): 40 nM
Alpha 2B IA (alpha2B receptor): 1.25
EC50 (alpha2C receptor): 685 nM
Alpha 2C IA (alpha2C receptor): 0.93

Cc1c(Cl)cccc1CNC(=O)NCCF [Compound 18, 1-(3-chloro-2-methyl-benzyl)-3-(2-fluoro-ethyl)-urea]
EC50 (alpha2A receptor): 400 nM
Alpha 2A IA (alpha2A receptor): 0.36
EC50 (alpha2B receptor): 40 nM
Alpha 2B IA (alpha2B receptor): 1.24
EC50 (alpha2C receptor): 1380 nM
Alpha 2C IA (alpha2C receptor): 0.94

COc1c(Br)cccc1CNC(=O)NCCF [Compound 19, 1-(3-bromo-2-methoxy-benzyl)-3-(2-fluoro-ethyl)-urea]
Alpha 2A EC50 (alpha2A receptor): not active
EC50 (alpha2B receptor): 2530 nM
Alpha 2B IA (alpha2B receptor): 0.83
Alpha 2C EC50 (alpha2C receptor): not active

O=C(NCCF)NCc1cccc2c1OCC2 [Compound 20, 1-(2,3-dihydro-benzofuran-7-ylmethyl)-3-(2-fluoro-ethyl)-urea]
EC50 (alpha2A receptor): 147 nM
Alpha 2A IA (alpha2A receptor): 0.51
EC50 (alpha2B receptor): 27 nM
Alpha 2B IA (alpha2B receptor): 1.14
EC50 (alpha2C receptor): 82 nM
Alpha 2C IA (alpha2C receptor): 0.83

O=C(NCCF)Nc1ccc2c(c1)CCC2 [Compound 21, 1-(2-fluoro-ethyl)-3-indan-5-yl-urea]
Alpha 2A EC50 (alpha2A receptor): not active
EC50 (alpha2B receptor): 115 nM
Alpha 2B IA (alpha2B receptor): 0.33
Alpha 2C EC50 (alpha2C receptor): not active

Cc1ccccc1NC(=O)NCCF [Compound 22, 1-(2-fluoro-ethyl)-3-o-tolyl-urea]
EC50 (alpha2A receptor): > 2000 nM
Alpha 2A IA (alpha2A receptor): 0.38
EC50 (alpha2B receptor): 1540 nM
Alpha 2B IA (alpha2B receptor): 0.92
EC50 (alpha2C receptor): > 2000 nM
Alpha 2C IA (alpha2C receptor): 0.48

Cc1cccc(C)c1NC(=O)NCCF [Compound 23, 1-(2,6-dimethyl-phenyl)-3-(2-fluoro-ethyl)-urea]
EC50 (alpha2A receptor): > 2000 nM
Alpha 2A IA (alpha2A receptor): 0.61
EC50 (alpha2B receptor): 679 nM
Alpha 2B IA (alpha2B receptor): 0.75
EC50 (alpha2C receptor): > 2000 nM
Alpha 2C IA (alpha2C receptor): 0.43

CCc1ccccc1NC(=O)NCCF [Compound 24, 1-(2-ethyl-phenyl)-3-(2-fluoro-ethyl)-urea]
EC50 (alpha2A receptor): 2670 nM
Alpha 2A IA (alpha2A receptor): 0.35
EC50 (alpha2B receptor): > 2000 nM
Alpha 2B IA (alpha2B receptor): 0.82
EC50 (alpha2C receptor): > 2000 nM
Alpha 2C IA (alpha2C receptor): 0.36

O=C(NCCF)Nc1ccc2ccccc2c1 [Compound 25, 1-(2-fluoro-ethyl)-3-naphthalen-2-yl-urea]
EC50 (alpha2A receptor): 1270 nM
Alpha 2A IA (alpha2A receptor): 0.58
EC50 (alpha2B receptor): 1580 nM
Alpha 2B IA (alpha2B receptor): 0.99
EC50 (alpha2C receptor): > 2000 nM
Alpha 2C IA (alpha2C receptor): 0.59

O=C(NCCF)Nc1ccccc1Br [Compound 26, 1-(2-bromo-phenyl)-3-(2-fluoro-ethyl)-urea]
Alpha 2A EC50 (alpha2A receptor): not active
EC50 (alpha2B receptor): 2650 nM
Alpha 2B IA (alpha2B receptor): 0.33
Alpha 2C EC50 (alpha2C receptor): not active

Cc1cccc(NC(=O)NCCF)c1C [Compound 27, 1-(2,3-dimethyl-phenyl)-3-(2-fluoro-ethyl)-urea]
EC50 (alpha2A receptor): > 2000 nM
Alpha 2A IA (alpha2A receptor): 0.54
EC50 (alpha2B receptor): 401 nM
Alpha 2B IA (alpha2B receptor): 0.9
EC50 (alpha2C receptor): 740 nM
Alpha 2C IA (alpha2C receptor): 0.73

O=C(NCCF)Nc1cccc2c1CCCC2 [Compound 28, 1-(2-fluoro-ethyl)-3-(5,6,7,8-tetrahydro-naphthalen-1-yl)-urea]
EC50 (alpha2A receptor): 385 nM
Alpha 2A IA (alpha2A receptor): 0.43
EC50 (alpha2B receptor): 157 nM
Alpha 2B IA (alpha2B receptor): 0.87
EC50 (alpha2C receptor): 285 nM
Alpha 2C IA (alpha2C receptor): 0.74

O=C(NCCF)Nc1cccc2c1CCC2 [Compound 29, 1-(2-fluoro-ethyl)-3-indan-4-yl-urea]
EC50 (alpha2A receptor): 940 nM
Alpha 2A IA (alpha2A receptor): 0.37
EC50 (alpha2B receptor): 1220 nM
Alpha 2B IA (alpha2B receptor): 0.89
EC50 (alpha2C receptor): 2550 nM
Alpha 2C IA (alpha2C receptor): 0.63

O=C(NCCF)Nc1cccc2ccccc12 [Compound 30, 1-(2-fluoro-ethyl)-3-naphthalen-1-yl-urea]
EC50 (alpha2A receptor): 1060 nM
Alpha 2A IA (alpha2A receptor): 0.74
EC50 (alpha2B receptor): 458 nM
Alpha 2B IA (alpha2B receptor): 0.9
EC50 (alpha2C receptor): > 2000 nM
Alpha 2C IA (alpha2C receptor): 0.66

O=C(NCCF)NCc1cccc2c1OCO2 [Compound 31, 1-benzo(1,3)dioxol-4-ylmethyl-3-(2-fluoro-ethyl)-urea]
EC50 (alpha2A receptor): > 2000 nM
Alpha 2A IA (alpha2A receptor): 0.48
EC50 (alpha2B receptor): 119 nM
Alpha 2B IA (alpha2B receptor): 1.0
EC50 (alpha2C receptor): 2020 nM
Alpha 2C IA (alpha2C receptor): 1.2

O=C(NCCF)NC(c1ccccc1)c1ccccc1 [Compound 32, 1-benzhydryl-3-(2-fluoro-ethyl)-urea]
Alpha 2A EC50 (alpha2A receptor): not active
EC50 (alpha2B receptor): 325 nM
Alpha 2B IA (alpha2B receptor): 0.58
Alpha 2C EC50 (alpha2C receptor): not active

C[C@H](NC(=O)NCCF)c1ccccc1 [Compound 33, (−)-(S)-1-(2-Fluoro-ethyl)-3-(1-phenyl-ethyl)-urea]
EC50 (alpha2A receptor): 302 nM
Alpha 2A IA (alpha2A receptor): 0.63
EC50 (alpha2B receptor): 66 nM
Alpha 2B IA (alpha2B receptor): 0.99
EC50 (alpha2C receptor): 513 nM
Alpha 2C IA (alpha2C receptor): 0.64

Source: patent US8557853B2, “Aryl fluoroethyl ureas acting as alpha 2 adrenergic agents” (Allergan, Inc., priority 2007, dated 2013)
